In patent US20220119354A1, “DIAMINO-SUBSTITUTED PYRIDINES AND PYRIMIDINES AS HERBICIDES” (FMC Corporation, priority 2019, published 2022):

Legend:
Type in all cases: in vivo
[1] = tested on: barnyardgrass (Echinochloa crus-galli); assay: Test A preemergence, barnyardgrass; conditions: 0 to 100 scale, 0 is no effect, 100 is complete control
Description: (§1) Seeds of plant species selected from barnyardgrass (Echinochloa crus-galli), kochia (Kochia scoparia), ragweed (common ragweed, Ambrosia elatior), ryegrass, Italian (Lolium multiflorum), foxtail, giant (Setaria faberii), foxtail, green (Setaria viridis), and pigweed (Amaranthus retroflexus) were planted into a blend of loam soil and sand and treated preemergence with a directed soil spray using test chemicals formulated in a non-phytotoxic solvent mixture which included a surfactant.
(§2) At the same time, plants selected from these weed species and also wheat (Triticum aestivum), corn (Zea mays), blackgrass (Alopecurus myosuroides), and galium (catchweed bedstraw, Galium aparine) were planted in pots containing the same blend of loam soil and sand and treated with postemergence applications of test chemicals formulated in the same manner. Plants ranged in height from 2 to 10 cm and were in the one- to two-leaf stage for the postemergence treatment. Treated plants and untreated controls were maintained in a greenhouse for approximately 10 d, after which time all treated plants were compared to untreated controls and visually evaluated for injury. Plant response ratings, summarized in Table A, are based on a 0 to 100 scale where 0 is no effect and 100 is complete control. A dash (-) response means no test result.

kochia (Kochia scoparia) [2] = assay: Test A preemergence, kochia; conditions: 0 to 100 scale, 0 is no effect, 100 is complete control
Description: as §1, §2

[3] = tested on: ragweed (common ragweed, Ambrosia elatior); assay: Test A preemergence, ragweed; conditions: 0 to 100 scale, 0 is no effect, 100 is complete control
Description: as §1, §2

[4] = tested on: ryegrass, Italian (Lolium multiflorum); assay: Test A preemergence, Italian ryegrass; conditions: 0 to 100 scale, 0 is no effect, 100 is complete control
Description: as §1, §2

[5] = tested on: foxtail, giant (Setaria faberii); assay: Test A preemergence, giant foxtail; conditions: 0 to 100 scale, 0 is no effect, 100 is complete control
Description: as §1, §2

[6] = tested on: pigweed (Amaranthus retroflexus); assay: Test A preemergence, pigweed; conditions: 0 to 100 scale, 0 is no effect, 100 is complete control
Description: as §1, §2

[7] = tested on: barnyardgrass (Echinochloa crus-galli); assay: Test A postemergence, barnyardgrass; conditions: 0 to 100 scale
Description: as §1, §2

kochia (Kochia scoparia) [8] = assay: Test A postemergence, kochia; conditions: 0 to 100 scale
Description: as §1, §2

[9] = tested on: ragweed (common ragweed, Ambrosia elatior); assay: Test A postemergence, ragweed; conditions: 0 to 100 scale
Description: as §1, §2

[10] = tested on: ryegrass, Italian (Lolium multiflorum); assay: Test A postemergence, Italian ryegrass; conditions: 0 to 100 scale
Description: as §1, §2

[11] = tested on: foxtail, giant (Setaria faberii); assay: Test A postemergence, giant foxtail; conditions: 0 to 100 scale
Description: as §1, §2

[12] = tested on: pigweed (Amaranthus retroflexus); assay: Test A postemergence, pigweed; conditions: 0 to 100 scale
Description: as §1, §2

[13] = tested on: wheat (Triticum aestivum); assay: Test A postemergence, wheat; conditions: 0 to 100 scale
Description: as §1, §2

[14] = tested on: blackgrass (Alopecurus myosuroides); assay: Test A postemergence, blackgrass; conditions: 0 to 100 scale
Description: as §1, §2

[15] = tested on: galium (catchweed bedstraw, Galium aparine); assay: Test A postemergence, galium; conditions: 0 to 100 scale
Description: as §1, §2

rice (Oryza sativa) = assay: Test B flooded paddy test, rice; conditions: Flood, 250 g ai/ha, applied to paddy water, 2-leaf stage, visual evaluation after 13 to 15 d
Description: (§3) Plant species in the flooded paddy test selected from rice (Oryza sativa), sedge, umbrella (small-flower umbrella sedge, Cyperus difformis), ducksalad (Heteranthera limosa), and barnyardgrass (Echinochloa crus-galli) were grown to the 2-leaf stage for testing. At the time of treatment, test pots were flooded to 3 cm above the soil surface, treated by application of test compounds directly to the paddy water, and then maintained at that water depth for the duration of the test. Treated plants and controls were maintained in a greenhouse for 13 to 15 d, after which time all species were compared to controls and visually evaluated. Plant response ratings, summarized in Table B, are based on a scale of 0 to 100 where 0 is no effect and 100 is complete control. A dash (-) response means no test result.

[16] = tested on: sedge, umbrella (small-flower umbrella sedge, Cyperus difformis); assay: Test B flooded paddy test, umbrella sedge; conditions: Flood, 250 g ai/ha, applied to paddy water, 2-leaf stage, visual evaluation after 13 to 15 d
Description: as §3

[17] = tested on: ducksalad (Heteranthera limosa); assay: Test B flooded paddy test, ducksalad; conditions: Flood, 250 g ai/ha, applied to paddy water, 2-leaf stage, visual evaluation after 13 to 15 d
Description: as §3

[18] = tested on: barnyardgrass (Echinochloa crus-galli); assay: Test B flooded paddy test, barnyardgrass; conditions: Flood, 250 g ai/ha, applied to paddy water, 2-leaf stage, visual evaluation after 13 to 15 d
Description: as §3

corn (Zea mays) = assay: Test A postemergence, corn; conditions: 0 to 100 scale, 0 no effect, 100 complete control
Description: as §1, §2

[19] = 500 g ai/ha, 0 is no effect, 100 is complete control
[20] = 125 g ai/ha, 0 no effect, 100 complete control
[21] = 500 g ai/ha, 0 no effect, 100 complete control
[22] = 31 g ai/ha, 0 no effect, 100 complete control

C[C@@H](Nc1ncc(C(F)(F)F)c(N)n1)c1coc2ccccc12 [Compound 52, N2-[(1R)-1-(3-benzofuranyl)ethyl]-5-(trifluoromethyl)-2,4-pyrimidinediamine]
Barnyardgrass plant response rating ([1]; 125 g ai/ha): 70
Barnyardgrass plant response rating ([1]; 500 g ai/ha): 100
Kochia plant response rating (kochia (Kochia scoparia) [2]; 125 g ai/ha): 90
Kochia plant response rating (kochia (Kochia scoparia) [2]; 500 g ai/ha): 100
Ragweed plant response rating ([3]; 125 g ai/ha): 100
Ragweed plant response rating ([3]; 500 g ai/ha): 100
Ryegrass, Italian plant response rating ([4]; 125 g ai/ha): 80
Ryegrass, Italian plant response rating ([4]; 500 g ai/ha): 90
Foxtail, Giant plant response rating ([5]; 125 g ai/ha): 90
Foxtail, Giant plant response rating ([5]; 500 g ai/ha): 100
Pigweed plant response rating ([6]; 125 g ai/ha): 100
Pigweed plant response rating ([6]; 500 g ai/ha): 100
Barnyardgrass plant response rating [7, 19]: 90
pest or weed control at 125 g/ha ([7]; Echinochloa crus-galli, post-emergence, 240 h, 125 g ai/ha, 0 no effect, 100 complete control, read-out: Plant response rating, Barnyardgrass): 30%
Kochia plant response rating (kochia (Kochia scoparia) [8]; [19]): 90
pest or weed control at 125 g/ha (kochia (Kochia scoparia) [8]; Bassia scoparia, post-emergence, 240 h, 125 g ai/ha, 0 no effect, 100 complete control, read-out: Plant response rating, Kochia): 90%
Ragweed plant response rating [9, 19]: 100
pest or weed control at 125 g/ha ([9]; Ambrosia artemisiifolia, post-emergence, 240 h, 125 g ai/ha, 0 no effect, 100 complete control, read-out: Plant response rating, Ragweed): 80%
Ryegrass, Italian plant response rating [10, 19]: 100
pest or weed control at 125 g/ha ([10]; Lolium multiflorum, post-emergence, 240 h, 125 g ai/ha, 0 no effect, 100 complete control, read-out: Plant response rating, Ryegrass, Italian): 60%
Foxtail, Giant plant response rating [11, 19]: 90
pest or weed control at 125 g/ha ([11]; Setaria faberi, post-emergence, 240 h, 125 g ai/ha, 0 no effect, 100 complete control, read-out: Plant response rating, Foxtail, Giant): 40%
Pigweed plant response rating [12, 19]: 100
pest or weed control at 125 g/ha ([12]; Amaranthus retroflexus, post-emergence, 240 h, 125 g ai/ha, 0 no effect, 100 complete control, read-out: Plant response rating, Pigweed): 100%
Wheat plant response rating [13, 19]: 30
plant injury at 125 g/ha ([13]; Triticum aestivum, post-emergence, 240 h, 125 g ai/ha, 0 no effect, 100 complete control, read-out: Plant response rating, Wheat): 0%
Blackgrass plant response rating [14, 19]: 90
pest or weed control at 125 g/ha ([14]; Alopecurus myosuroides, post-emergence, 240 h, 125 g ai/ha, 0 no effect, 100 complete control, read-out: Plant response rating, Blackgrass): 50%
Galium plant response rating [15, 19]: 90
pest or weed control at 125 g/ha ([15]; Galium, post-emergence, 240 h, 125 g ai/ha, 0 no effect, 100 complete control, read-out: Plant response rating, Galium): 80%
plant injury at 250 g/ha (rice (Oryza sativa); Oryza sativa, 360 h, read-out: Plant response rating, Rice (0 to 100 scale, 0 is no effect, 100 is complete control)): 10%
pest or weed control at 250 g/ha ([16]; Cyperus difformis, 360 h, read-out: Plant response rating, Sedge, Umbrella (0 to 100 scale, 0 is no effect, 100 is complete control)): 95%
pest or weed control at 250 g/ha ([17]; Heteranthera limosa, 360 h, read-out: Plant response rating, Ducksalad (0 to 100 scale, 0 is no effect, 100 is complete control)): 100%
pest or weed control at 250 g/ha ([18]; Echinochloa crus-galli, 360 h, read-out: Plant response rating, Barnyardgrass (0 to 100 scale, 0 is no effect, 100 is complete control)): 90%

Cc1ccc2c([C@@H](Nc3ncc(C(F)(F)F)c(N)n3)C3CC3)coc2c1 [Compound 91]
Barnyardgrass plant response rating ([1]; 125 g ai/ha): 0
Barnyardgrass plant response rating ([1]; 500 g ai/ha): 0
Kochia plant response rating (kochia (Kochia scoparia) [2]; 125 g ai/ha): 0
Kochia plant response rating (kochia (Kochia scoparia) [2]; 500 g ai/ha): 0
Ragweed plant response rating ([3]; 125 g ai/ha): 0
Ragweed plant response rating ([3]; 500 g ai/ha): 0
Ryegrass, Italian plant response rating ([4]; 125 g ai/ha): 0
Ryegrass, Italian plant response rating ([4]; 500 g ai/ha): 30
Foxtail, Giant plant response rating ([5]; 125 g ai/ha): 0
Foxtail, Giant plant response rating ([5]; 500 g ai/ha): 0
Pigweed plant response rating ([6]; 125 g ai/ha): 0
Pigweed plant response rating ([6]; 500 g ai/ha): 0
Plant response rating, Kochia (kochia (Kochia scoparia) [8]; [20]): 0
Plant response rating, Kochia (kochia (Kochia scoparia) [8]; [21]): 0
Plant response rating, Ragweed [9, 20]: 0
Plant response rating, Ragweed [9, 21]: 0
Plant response rating, Ryegrass, Italian [10, 20]: 0
Plant response rating, Ryegrass, Italian [10, 21]: 0
Plant response rating, Foxtail, Giant [11, 20]: 0
Plant response rating, Foxtail, Giant [11, 21]: 0
Plant response rating, Pigweed [12, 20]: 0
Plant response rating, Pigweed [12, 21]: 0
Plant response rating, Wheat [13, 20]: 0
Plant response rating, Wheat [13, 21]: 0
Plant response rating, Corn (corn (Zea mays); 125 g ai/ha): 0
Plant response rating, Corn (corn (Zea mays); 500 g ai/ha): 0
Plant response rating, Blackgrass [14, 20]: 0
Plant response rating, Blackgrass [14, 21]: 0
Plant response rating, Galium [15, 20]: 0
Plant response rating, Galium [15, 21]: 0
Plant response rating, Rice (0 to 100 scale, 0 is no effect, 100 is complete control) (rice (Oryza sativa)): 0
Plant response rating, Sedge, Umbrella (0 to 100 scale, 0 is no effect, 100 is complete control) [16]: 0
Plant response rating, Ducksalad (0 to 100 scale, 0 is no effect, 100 is complete control) [17]: 0
Plant response rating, Barnyardgrass (0 to 100 scale, 0 is no effect, 100 is complete control) [18]: 0

C[C@@H](Nc1ncc(C(F)(F)F)c(N)n1)c1cc2ccccc2[s+]1[O-] (stereo partly drawn) [Compound 113]
Barnyardgrass plant response rating ([1]; 31 g ai/ha): 0
Barnyardgrass plant response rating ([1]; 125 g ai/ha): 0
Kochia plant response rating (kochia (Kochia scoparia) [2]; 31 g ai/ha): 20
Kochia plant response rating (kochia (Kochia scoparia) [2]; 125 g ai/ha): 80
Ragweed plant response rating ([3]; 31 g ai/ha): 0
Ragweed plant response rating ([3]; 125 g ai/ha): 20
Ryegrass, Italian plant response rating ([4]; 31 g ai/ha): 0
Ryegrass, Italian plant response rating ([4]; 125 g ai/ha): 30
Foxtail, Giant plant response rating ([5]; 31 g ai/ha): 0
Foxtail, Giant plant response rating ([5]; 125 g ai/ha): 10
Plant response rating, Barnyardgrass [7, 22]: 0
Plant response rating, Barnyardgrass [7, 20]: 0
Plant response rating, Kochia (kochia (Kochia scoparia) [8]; [22]): 30
Plant response rating, Kochia (kochia (Kochia scoparia) [8]; [20]): 70
Plant response rating, Ragweed [9, 22]: 0
Plant response rating, Ragweed [9, 20]: 40
Plant response rating, Ryegrass, Italian [10, 22]: 0
Plant response rating, Ryegrass, Italian [10, 20]: 0
Plant response rating, Foxtail, Giant [11, 22]: 0
Plant response rating, Foxtail, Giant [11, 20]: 0
Plant response rating, Pigweed [12, 22]: 40
Plant response rating, Pigweed [12, 20]: 100
Plant response rating, Wheat [13, 22]: 0
Plant response rating, Wheat [13, 20]: 0
Plant response rating, Corn (corn (Zea mays); 31 g ai/ha): 20
Plant response rating, Corn (corn (Zea mays); 125 g ai/ha): 0
Plant response rating, Blackgrass [14, 22]: 0
Plant response rating, Blackgrass [14, 20]: 0
Plant response rating, Galium [15, 22]: 40
Plant response rating, Galium [15, 20]: 70
Plant response rating, Rice (0 to 100 scale, 0 is no effect, 100 is complete control) (rice (Oryza sativa)): 0
Plant response rating, Sedge, Umbrella (0 to 100 scale, 0 is no effect, 100 is complete control) [16]: 0
Plant response rating, Ducksalad (0 to 100 scale, 0 is no effect, 100 is complete control) [17]: 0
Plant response rating, Barnyardgrass (0 to 100 scale, 0 is no effect, 100 is complete control) [18]: 0
